According to ChEMBL document CHEMBL4616702 (ACS Med Chem Lett, 2020):

Experiments:
[1] = Half life in mouse liver microsomes in presence of NADPH by LC/MS/MS method; assay type: ADME, Microsome; settings: liver microsomes
[2] = AUC (0 to 24 hrs) in Balb/c mouse at 10 mg/kg, po; assay type: ADME, organism-based; design: dose 10 mg/kg, time < 24 hr, route oral; settings: in vivo
[3] = target: T1, Nuclear receptor ROR-beta (Homo sapiens, UniProt Q92753); test: Inverse agonist activity at Gal4-fused RORbeta (unknown origin)
T1 sequence (Q92753 whole entry): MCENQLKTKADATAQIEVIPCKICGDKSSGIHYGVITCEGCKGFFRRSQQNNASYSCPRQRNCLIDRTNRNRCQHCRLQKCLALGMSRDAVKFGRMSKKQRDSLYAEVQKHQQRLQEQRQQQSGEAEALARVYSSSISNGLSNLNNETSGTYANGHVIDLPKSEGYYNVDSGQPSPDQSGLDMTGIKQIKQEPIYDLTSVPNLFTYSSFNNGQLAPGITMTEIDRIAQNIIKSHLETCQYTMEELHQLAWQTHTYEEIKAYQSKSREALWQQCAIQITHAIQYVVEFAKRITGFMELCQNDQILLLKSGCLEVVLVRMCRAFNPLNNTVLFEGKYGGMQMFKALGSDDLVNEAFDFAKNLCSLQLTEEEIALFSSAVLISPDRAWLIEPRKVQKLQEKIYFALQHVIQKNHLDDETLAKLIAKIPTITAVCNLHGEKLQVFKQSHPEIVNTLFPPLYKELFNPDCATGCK

[4] = target: T2, Nuclear receptor subfamily 1 group I member 2 (Homo sapiens, UniProt O75469); test: Inverse agonist activity at PXR (unknown origin)
T2 sequence (O75469 whole entry): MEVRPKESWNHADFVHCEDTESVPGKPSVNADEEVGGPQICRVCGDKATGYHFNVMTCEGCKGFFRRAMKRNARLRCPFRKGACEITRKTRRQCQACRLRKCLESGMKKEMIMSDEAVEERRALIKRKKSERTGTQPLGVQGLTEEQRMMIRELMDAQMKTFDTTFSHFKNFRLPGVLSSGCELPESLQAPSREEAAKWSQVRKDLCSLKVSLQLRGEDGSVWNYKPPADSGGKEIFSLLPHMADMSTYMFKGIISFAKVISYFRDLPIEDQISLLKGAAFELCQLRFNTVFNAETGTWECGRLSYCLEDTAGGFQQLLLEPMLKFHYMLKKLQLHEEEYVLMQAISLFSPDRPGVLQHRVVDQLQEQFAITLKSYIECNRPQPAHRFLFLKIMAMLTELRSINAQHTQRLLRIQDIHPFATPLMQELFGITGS

[5] = target: T3, Oxysterols receptor LXR-alpha (Homo sapiens, UniProt Q13133); test: Inverse agonist activity at LXRalpha (unknown origin)
T3 sequence (Q13133 whole entry): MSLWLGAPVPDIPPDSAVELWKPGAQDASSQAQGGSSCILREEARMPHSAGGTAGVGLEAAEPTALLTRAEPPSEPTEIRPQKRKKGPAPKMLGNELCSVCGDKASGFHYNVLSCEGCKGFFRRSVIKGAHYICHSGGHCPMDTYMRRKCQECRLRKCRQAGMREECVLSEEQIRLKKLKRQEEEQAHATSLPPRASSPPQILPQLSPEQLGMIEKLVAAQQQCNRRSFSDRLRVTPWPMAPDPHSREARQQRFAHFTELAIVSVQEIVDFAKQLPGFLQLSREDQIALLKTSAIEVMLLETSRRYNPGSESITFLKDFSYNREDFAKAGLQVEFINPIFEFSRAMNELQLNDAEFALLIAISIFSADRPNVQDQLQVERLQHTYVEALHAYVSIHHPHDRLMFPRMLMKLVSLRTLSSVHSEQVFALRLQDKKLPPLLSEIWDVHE

[6] = target: T4, Cytochrome P450 2C8 (Homo sapiens, UniProt P10632); test: Inhibition of recombinant CYP2C8 (unknown origin); assay type: ADME
T4 sequence (P10632 whole entry): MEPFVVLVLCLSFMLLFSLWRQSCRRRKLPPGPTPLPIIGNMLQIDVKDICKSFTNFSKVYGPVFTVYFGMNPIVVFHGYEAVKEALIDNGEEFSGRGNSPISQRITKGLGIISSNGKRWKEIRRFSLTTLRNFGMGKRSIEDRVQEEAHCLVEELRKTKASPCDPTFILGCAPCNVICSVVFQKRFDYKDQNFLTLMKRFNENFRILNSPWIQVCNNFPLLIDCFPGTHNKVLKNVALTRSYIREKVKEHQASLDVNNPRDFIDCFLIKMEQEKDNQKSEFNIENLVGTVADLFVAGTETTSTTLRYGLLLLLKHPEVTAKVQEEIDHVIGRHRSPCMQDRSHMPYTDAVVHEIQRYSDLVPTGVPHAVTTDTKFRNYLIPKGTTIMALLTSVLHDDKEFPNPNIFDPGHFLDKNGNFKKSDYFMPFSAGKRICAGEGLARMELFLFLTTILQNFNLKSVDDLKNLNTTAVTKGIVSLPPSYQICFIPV

[7] = target: Cytochrome P450 2D6 (Homo sapiens, UniProt P10635); test: Inhibition of recombinant CYP2D6 (unknown origin); assay type: ADME
Cytochrome P450 2D6, sequence (P10635 whole entry): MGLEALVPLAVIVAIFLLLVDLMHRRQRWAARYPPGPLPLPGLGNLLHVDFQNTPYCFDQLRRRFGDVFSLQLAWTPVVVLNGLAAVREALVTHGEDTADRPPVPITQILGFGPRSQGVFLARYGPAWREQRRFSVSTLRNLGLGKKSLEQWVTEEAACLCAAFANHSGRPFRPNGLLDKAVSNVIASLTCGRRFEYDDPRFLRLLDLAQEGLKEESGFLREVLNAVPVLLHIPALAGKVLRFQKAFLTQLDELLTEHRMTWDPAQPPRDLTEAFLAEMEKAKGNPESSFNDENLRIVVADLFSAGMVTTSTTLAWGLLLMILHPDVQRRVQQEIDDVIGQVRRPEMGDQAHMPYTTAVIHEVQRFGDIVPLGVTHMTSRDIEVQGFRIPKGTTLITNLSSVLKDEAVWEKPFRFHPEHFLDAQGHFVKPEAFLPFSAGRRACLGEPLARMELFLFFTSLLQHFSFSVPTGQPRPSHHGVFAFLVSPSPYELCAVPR

[8] = target: Cytochrome P450 3A4 (Homo sapiens, UniProt P08684); test: Inhibition of recombinant CYP3A4 (unknown origin); assay type: ADME
Cytochrome P450 3A4, sequence (P08684 whole entry): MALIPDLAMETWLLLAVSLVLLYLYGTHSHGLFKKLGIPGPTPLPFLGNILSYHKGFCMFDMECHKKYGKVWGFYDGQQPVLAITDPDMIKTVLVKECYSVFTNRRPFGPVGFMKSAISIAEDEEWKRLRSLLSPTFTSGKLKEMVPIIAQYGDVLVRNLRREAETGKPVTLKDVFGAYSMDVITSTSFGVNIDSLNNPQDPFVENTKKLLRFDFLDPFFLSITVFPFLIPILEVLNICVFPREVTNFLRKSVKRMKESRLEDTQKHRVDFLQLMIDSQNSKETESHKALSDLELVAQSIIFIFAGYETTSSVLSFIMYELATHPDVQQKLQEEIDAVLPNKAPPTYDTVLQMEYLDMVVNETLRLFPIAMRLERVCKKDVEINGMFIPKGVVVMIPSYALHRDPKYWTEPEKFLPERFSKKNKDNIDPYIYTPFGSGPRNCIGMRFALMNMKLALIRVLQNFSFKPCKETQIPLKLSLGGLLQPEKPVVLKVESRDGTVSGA

[9] = Clearance in mouse at 2 mg/kg, iv; assay type: ADME, organism-based; settings: in vivo
[10] = Cmax in mouse at 4 mg/kg, po; assay type: ADME, organism-based; design: dose 4 mg/kg, route oral; settings: in vivo
[11] = Clearance in rat at 2 mg/kg, iv; assay type: ADME, organism-based; settings: in vivo
[12] = Cmax in rat at 4 mg/kg, po; assay type: ADME, organism-based; design: dose 4 mg/kg, route oral; settings: in vivo
[13] = Clearance in dog at 1 mg/kg, iv; assay type: ADME, organism-based, Canis lupus familiaris; settings: in vivo
[14] = Cmax in dog at 1 mg/kg, po; assay type: ADME, organism-based, Canis lupus familiaris; design: dose 1 mg/kg, route oral; settings: in vivo
[15] = Cmax in cynomolgus monkey at 1 mg/kg, po; assay type: ADME, organism-based, Macaca fascicularis; design: dose 1 mg/kg, route oral; settings: in vivo
[16] = AUC (0 to 24 hrs) in mouse at 4 mg/kg, po; assay type: ADME, organism-based; design: dose 4 mg/kg, time < 24 hr, route oral; settings: in vivo
[17] = Volume of distribution in steady state in rat at 2 mg/kg, iv; assay type: ADME, organism-based; settings: in vivo, read-out: Vdss
[18] = Volume of distribution in steady state in dog at 1 mg/kg, iv; assay type: ADME, organism-based, Canis lupus familiaris; settings: in vivo, read-out: Vdss
[19] = AUC (0 to 24 hrs) in dog at 1 mg/kg, po; assay type: ADME, organism-based, Canis lupus familiaris; design: time < 24 hr, dose 1 mg/kg, route oral; settings: in vivo
[20] = Oral bioavailability in mouse at 4 mg/kg; assay type: ADME, organism-based; settings: in vivo
[21] = Oral bioavailability in dog at 1 mg/kg; assay type: ADME, organism-based, Canis lupus familiaris; settings: in vivo
[22] = Volume of distribution in steady state in cynomolgus monkey at 1 mg/kg, iv; assay type: ADME, organism-based, Macaca fascicularis; settings: in vivo, read-out: Vdss
[23] = AUC (0 to 24 hrs) in cynomolgus monkey at 1 mg/kg, po; assay type: ADME, organism-based, Macaca fascicularis; design: dose 1 mg/kg, time < 24 hr, route oral; settings: in vivo
[24] = Half life in rat liver microsomes in presence of NADPH by LC/MS/MS metho; assay type: ADME, Microsome; settings: liver microsomes
[25] = target: Cytochrome P450 2C19 (Homo sapiens, UniProt P33261); test: Inhibition of recombinant CYP2C19 (unknown origin); assay type: ADME
Cytochrome P450 2C19, sequence (P33261 whole entry): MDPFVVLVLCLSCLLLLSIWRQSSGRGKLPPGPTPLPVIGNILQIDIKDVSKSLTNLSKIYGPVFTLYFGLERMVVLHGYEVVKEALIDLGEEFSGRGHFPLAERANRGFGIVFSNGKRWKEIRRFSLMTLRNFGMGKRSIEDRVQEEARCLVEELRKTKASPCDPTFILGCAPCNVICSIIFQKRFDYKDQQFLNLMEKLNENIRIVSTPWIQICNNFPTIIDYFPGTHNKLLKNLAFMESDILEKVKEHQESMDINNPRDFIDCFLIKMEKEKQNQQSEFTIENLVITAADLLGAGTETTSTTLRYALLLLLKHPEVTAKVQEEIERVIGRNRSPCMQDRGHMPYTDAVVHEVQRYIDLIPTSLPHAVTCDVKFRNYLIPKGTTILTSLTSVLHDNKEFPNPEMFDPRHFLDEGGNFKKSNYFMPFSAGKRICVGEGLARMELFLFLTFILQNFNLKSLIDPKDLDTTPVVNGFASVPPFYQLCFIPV

[26] = Drug concentration in Balb/c mouse at 10 mg/kg, po measured upto 24 hrs; assay type: ADME, organism-based; settings: in vivo, read-out: Drug uptake

half-life [1]: > 120 min
AUC(0-t) at 24 h [2]: 68 µM·h
EC50 [3]: > 10 µM
EC50 [4]: > 5 µM
EC50 [5]: > 7.5 µM
IC50 [6]: 16 µM
IC50 [7]: > 20 µM
IC50 [8]: > 20 µM
clearance [9]: 2.7 mL/min/kg
Cmax [10]: 4.8 µM
clearance [11]: 1.3 mL/min/kg
Cmax [12]: 4.7 µM
clearance [13]: 0.18 mL/min/kg
Cmax [14]: 6.4 µM
Cmax [15]: 3.1 µM
AUC(0-t) at 24 h [16]: 37 µM·h
Vd [17]: 1.2 L/kg
Vd [18]: 0.5 L/kg
AUC(0-t) at 24 h [19]: 120 µM·h
bioavailability [20]: 100%
bioavailability [21]: 100%
Vd [22]: 2 L/kg
AUC(0-t) at 24 h [23]: 35 µM·h
half-life [24]: > 120 min
IC50 [25]: > 20 µM
concentration at 24 h [26]: 520 nM
Compound: C[C@H]1C[C@H](C(=O)O)CC[C@H]1C(=O)N1CC[C@@]2(S(=O)(=O)c3ccc(F)cc3)c3ccc(C(F)(C(F)(F)F)C(F)(F)F)cc3CC[C@@H]12 [BMS-986251]
